Measurements from patent US20110110923A1, “FISH ASSAY FOR EML4 AND ALK FUSION IN LUNG CANCER” (The Brigham and Women's Hospital, Inc., priority 2008, published 2011).
Entries after “also recorded” stand apart in the source; their conditions may differ.

What was measured:
[1] = tested on: Akt, STAT3 and ERK 1/2 phosphorylation in DFCI032; experiment: Western blot of downstream signalling, DFCI032; assay type: cell-based, human; conditions: DFCI032, 0.1 μM, 6 hours
Method: (§1) The supernatant was used for subsequent procedures. […] Immunoblotting was performed according to the antibody manufacturers' recommendations. […] Total ERK1/2 and phospho-ERK1/2 (pT185/pY187) antibodies were purchased from Biosource International (Camarillo, Calif.).

[2] = tested on: Akt, STAT3 and ERK 1/2 phosphorylation in PC-9; experiment: Western blot of downstream signalling, PC-9; assay type: cell-based, human; conditions: PC-9, 0.1 μM, 6 hours
Method: as §1

[3] = tested on: A549 cell line (K-Ras G12S); experiment: MTS cell growth assay, A549; assay type: cell-based, human; conditions: A549, 72 hours
Method: (§2) Growth and inhibition of growth was assessed by methoxy-tetrazolium salt (MTS) assay. This assay, a colorimetric method for determining the number of viable cells, is based on the bioreduction of 3-(4,5-dimethylthiazol-2-yl)-5-(3-carboxymethoxyphenyl)-2-(4-sulfophenyl)-2H-tetrazolium (MTS) by cells to a formazan product that is soluble in cell culture medium, can be detected spectrophotometrically. NSCLC cells were exposed to treatment for 72 hours and the number of cells used per experiment determined empirically. All experimental points were set up in six to twelve wells and all experiments were repeated at least three times. […] The curves were fitted using a non-linear regression model with a sigmoidal dose response.

[4] = tested on: H3122 cell line (EML4-ALK variant 1); experiment: MTS cell growth assay, H3122; assay type: cell-based; conditions: Homo sapiens, NCI-H3122, read-out: IC50, growth inhibition, H3122, 72 hours
Method: as §2

[5] = tested on: H2228 cell line (EML4-ALK variant 3); experiment: MTS cell growth assay, H2228; assay type: cell-based; conditions: Homo sapiens, NCI-H2228, read-out: IC50, growth inhibition, H2228, 72 hours
Method: as §2

[6] = tested on: Akt, STAT3 and ERK 1/2 phosphorylation in H3122; experiment: Western blot of downstream signalling, H3122; assay type: cell-based, human; conditions: H3122, 0.1 μM, 6 hours
Method: as §1

[7] = tested on: PC-9 cell line (EGFR delE746_A750); experiment: MTS cell growth assay, PC-9; assay type: cell-based, human; conditions: PC-9, 72 hours
Text: All experimental points were set up in six to twelve wells and all experiments were repeated at least three times. […] The curves were fitted using a non-linear regression model with a sigmoidal dose response.

[8] = tested on: other cell lines (H2228, DFCI032, PC-9, A549); experiment: Growth arrest / apoptosis in the other NSCLC cell lines; assay type: cell-based, human; conditions: other cell lines than H3122
Method: as §2, §1
Cells were collected and fixed in 40% ethanol for at least 1 hour (or until ready for the experiment) at 4° C. […] The stained cells were then analyzed for DNA content in a Becton Dickinson fluorescence-activated cell sorter using both ModFit (Verity Software House, Topsham, Me.) and CellQuest (Becton Dickinson, San Jose, Calif.) programs.

[9] = in vivo; cited from earlier work
[10] = tested on: Karpas 299 cells; conditions: NPM-ALK positive lymphoma cells; cited from earlier work
[11] = tested on: DFCI032 cell line (EML4-ALK variant 1); experiment: MTS cell growth assay, DFCI032; assay type: cell-based; conditions: Homo sapiens, read-out: IC50, growth inhibition, DFCI032, 72 hours
Method: as §2

[12] = tested on: Akt, STAT3 and ERK 1/2 phosphorylation in H2228; experiment: Western blot of downstream signalling, H2228; assay type: cell-based, human; conditions: H2228, 0.1 μM, 6 hours
Method: as §1

[13] = tested on: H3122 cell line; experiment: Apoptosis by FACS (sub G1) and Western blot for cleaved PARP, H3122; assay type: cell-based, human; conditions: H3122, 0.1 μM, 72 h
Method: as §1
Cells were collected and fixed in 40% ethanol for at least 1 hour (or until ready for the experiment) at 4° C. The fixed cells were treated with 0.5 mL of […] RNase A for 45 minutes at 37° C. and stained with […] propidium iodide (in 38 mM sodium citrate) for at least 30 minutes at room temperature in the dark. The stained cells were then analyzed for DNA content in a Becton Dickinson fluorescence-activated cell sorter using both ModFit (Verity Software House, Topsham, Me.) and CellQuest (Becton Dickinson, San Jose, Calif.) programs.

[14] = molecular target: ALK kinase (Homo sapiens, UniProt Q9UM73); conditions: initial studies, Li et al.; read-out: IC50 (ALK inhibitors); cited from earlier work
Sequence of ALK kinase (Q9UM73 19-1620): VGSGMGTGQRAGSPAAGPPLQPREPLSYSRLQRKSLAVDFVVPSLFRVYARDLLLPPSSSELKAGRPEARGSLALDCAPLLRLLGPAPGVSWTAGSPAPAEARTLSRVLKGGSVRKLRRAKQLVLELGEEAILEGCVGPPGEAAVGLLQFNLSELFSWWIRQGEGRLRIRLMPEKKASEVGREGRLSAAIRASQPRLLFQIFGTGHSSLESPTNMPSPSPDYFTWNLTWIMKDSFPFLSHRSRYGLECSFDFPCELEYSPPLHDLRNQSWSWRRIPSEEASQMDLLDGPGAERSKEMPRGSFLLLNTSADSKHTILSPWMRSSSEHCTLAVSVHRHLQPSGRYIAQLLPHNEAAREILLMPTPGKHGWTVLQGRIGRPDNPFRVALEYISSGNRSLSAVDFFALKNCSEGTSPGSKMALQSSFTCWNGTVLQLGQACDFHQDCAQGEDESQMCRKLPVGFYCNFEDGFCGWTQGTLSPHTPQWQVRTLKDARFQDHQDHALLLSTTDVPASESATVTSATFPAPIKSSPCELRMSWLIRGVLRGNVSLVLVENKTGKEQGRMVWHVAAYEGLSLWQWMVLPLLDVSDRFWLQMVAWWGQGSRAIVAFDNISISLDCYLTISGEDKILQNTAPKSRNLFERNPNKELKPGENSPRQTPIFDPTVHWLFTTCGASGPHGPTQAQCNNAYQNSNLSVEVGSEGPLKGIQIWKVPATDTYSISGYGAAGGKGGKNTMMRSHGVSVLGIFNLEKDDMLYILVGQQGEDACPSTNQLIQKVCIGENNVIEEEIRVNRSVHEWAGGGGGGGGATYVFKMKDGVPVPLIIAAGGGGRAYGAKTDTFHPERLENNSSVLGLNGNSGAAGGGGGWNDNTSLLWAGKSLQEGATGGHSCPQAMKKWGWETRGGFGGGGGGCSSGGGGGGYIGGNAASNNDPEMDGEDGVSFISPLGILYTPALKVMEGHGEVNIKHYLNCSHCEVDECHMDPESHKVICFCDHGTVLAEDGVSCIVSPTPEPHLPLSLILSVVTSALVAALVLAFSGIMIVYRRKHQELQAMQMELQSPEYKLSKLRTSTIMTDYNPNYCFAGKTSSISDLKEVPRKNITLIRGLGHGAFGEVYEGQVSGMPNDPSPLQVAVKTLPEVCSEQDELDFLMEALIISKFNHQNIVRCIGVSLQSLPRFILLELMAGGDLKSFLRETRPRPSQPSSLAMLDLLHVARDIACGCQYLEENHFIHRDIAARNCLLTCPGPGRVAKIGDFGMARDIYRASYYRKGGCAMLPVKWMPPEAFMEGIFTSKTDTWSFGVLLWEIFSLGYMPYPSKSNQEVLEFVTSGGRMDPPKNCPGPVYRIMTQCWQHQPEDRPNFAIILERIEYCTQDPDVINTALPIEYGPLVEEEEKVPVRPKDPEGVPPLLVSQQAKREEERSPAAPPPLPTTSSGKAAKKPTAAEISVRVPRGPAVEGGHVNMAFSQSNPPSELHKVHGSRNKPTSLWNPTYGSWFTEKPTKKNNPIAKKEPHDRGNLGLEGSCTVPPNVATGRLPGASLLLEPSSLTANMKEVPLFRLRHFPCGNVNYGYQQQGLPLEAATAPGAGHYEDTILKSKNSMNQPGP

[15] = tested on: EML4-ALK fusion transformed Ba/F3 models; conditions: original study describing the EML4-ALK fusion gene; cited from earlier work

SMILES | Akt, STAT3 and ERK 1/2 phosphorylation [1] | Akt, STAT3 and ERK 1/2 phosphorylation [2] | growth: resistance to the inhibitor [3] | IC50 [4] [nM] | IC50 [5] [nM] | Akt, STAT3 and ERK 1/2 phosphorylation [6] | growth: resistance to the inhibitor [7] | growth arrest or apoptosis [8] | bioavailability [9] | IC50 [10] [nM] | IC50 [11] [nM] | Akt, STAT3 and ERK 1/2 phosphorylation [12] | 89 kDa cleaved PARP product (Western blot) [13] | apoptosis (FACS sub G1 fraction / cleaved PARP) [13] | apoptosis (FACS sub G1 fraction / cleaved PARP) ([13]; listed as TAE-684) | IC50 [14] [nM] | growth inhibition [15]
COc1cc(N2CCC(N3CCN(C)CC3)CC2)ccc1Nc1ncc(Cl)c(Nc2ccccc2S(=O)(=O)C(C)C)n1 [NVP-TAE684] | unchanged; also recorded: no inhibition | unchanged | resistant | ~10 | 1000 to 10000 | substantial inhibition; also recorded: decrease | resistant | No growth arrest or apoptosis | good | 2 to 5 | 1000 to 10000 | some but not complete inhibition; also recorded: only partial inhibition; also recorded: decrease | observed | significant apoptosis | Significant apoptosis |  | 
C[C@@H](Oc1cc(-c2cnn(C3CCNCC3)c2)cnc1N)c1c(Cl)ccc(F)c1Cl [PF-02341066] |  |  |  |  |  |  |  |  | good | 26 |  |  |  |  |  |  | 
COc1cc2ncnc(Nc3ccc(O)c(Br)c3)c2cc1OC [WHI-P154] |  |  |  |  |  |  |  |  |  |  |  |  |  |  |  | ~5000 | growth inhibition
